One block for each compound: values may come before it.
What was measured:
[1] = Metabolic stability in human liver microsomes assessed as parent compound remaining at 0.5 uM after 10 mins; assay type: ADME, Microsome; details: read-out: Stabilty
[2] = AUC in mouse at 10 mg/kg, po; assay type: ADME, organism-based; set-up: dose 10 mg/kg; details: in vivo
[3] = Cmax in mouse at 10 mg/kg, po; assay type: ADME, organism-based; set-up: route oral, dose 10 mg/kg; details: in vivo
[4] = Permeability of the compound at pH 5.5 by PAMPA; assay type: ADME; details: read-out: permeability
[5] = Permeability of the compound at pH 7.4 by PAMPA; assay type: ADME; details: read-out: permeability
[6] = Metabolic stability in human liver microsomes assessed as half life; assay type: ADME, Microsome
[7] = AUC in mouse at 2 mg/kg, po; assay type: ADME, organism-based; set-up: dose 2 mg/kg; details: in vivo
[8] = Cmax in mouse at 2 mg/kg, po; assay type: ADME, organism-based; set-up: route oral, dose 2 mg/kg; details: in vivo

remaining at 10 min, 0.5 µM [1]: 49%
Structure (SMILES): COc1cccc([C@@H](C)NC(=O)c2ccc(-c3cn[nH]c3)cc2OC)c1

remaining at 10 min, 0.5 µM [1]: 32%
Structure (SMILES): COc1cccc([C@@H](C)NC(=O)c2ccc(-c3cn[nH]c3)c(OC)c2)c1

remaining at 10 min, 0.5 µM [1]: 49%
Structure (SMILES): COc1cccc(CNC(=O)c2ccc(-c3cn[nH]c3)c(OC)c2)c1

AUC [2]: 90 µM·h
Cmax [3]: 21 µM
Papp [4]: 10.5 ×10⁻⁶ cm/s
Papp [5]: 11 ×10⁻⁶ cm/s
remaining at 10 min, 0.5 µM [1]: 87%
Structure (SMILES): COc1cc(C(=O)N[C@H](CO)c2ccccc2)ccc1-c1cn[nH]c1

remaining at 10 min, 0.5 µM [1]: 59%
Structure (SMILES): COc1cccc([C@@H](C)NC(=O)c2ccc(-c3cn[nH]c3)c(Cl)c2)c1

remaining at 10 min, 0.5 µM [1]: 57%
Structure (SMILES): COc1cccc([C@@H](C)NC(=O)c2ccc(-c3cn[nH]c3)c(OC)c2F)c1

AUC [2]: 35 µM·h
Cmax [3]: 12 µM
Papp [4]: 29 ×10⁻⁶ cm/s
Papp [5]: 20 ×10⁻⁶ cm/s
remaining at 10 min, 0.5 µM [1]: 74%
Structure (SMILES): COc1cccc([C@@H](C)NC(=O)c2ccc(-c3cn[nH]c3)c(C)c2)c1

remaining at 10 min, 0.5 µM [1]: 44%
Structure (SMILES): COc1cccc([C@@H](C)NC(=O)c2ccc(-c3cn[nH]c3)c(C(F)(F)F)c2)c1

remaining at 10 min, 0.5 µM [1]: 93%
Structure (SMILES): COc1cc(C(=O)N[C@H](CN)c2ccccc2)ccc1-c1cn[nH]c1

remaining at 10 min, 0.5 µM [1]: 67%
Structure (SMILES): COc1cccc([C@@H](C)NC(=O)c2ccc(-c3cn[nH]c3)c(C#N)c2)c1

AUC [2]: 140 µM·h
Cmax [3]: 28 µM
Papp [4]: 45 ×10⁻⁶ cm/s
Papp [5]: 74 ×10⁻⁶ cm/s
half-life [6]: 41 min
Structure (SMILES): COc1cc(NC(=O)[C@H](N)CCc2ccccc2)ccc1-c1cn[nH]c1

AUC [2]: 140 µM·h
Cmax [3]: 23 µM
Papp [4]: 61 ×10⁻⁶ cm/s
Papp [5]: 61 ×10⁻⁶ cm/s
remaining at 10 min, 0.5 µM [1]: 79%
Structure (SMILES): COc1cc(C(=O)N[C@H](C)c2c(F)cccc2F)ccc1-c1cn[nH]c1

half-life [6]: 62 min
Structure (SMILES): COc1cc(NC(=O)[C@@H](N)CCc2ccccc2)ccc1-c1cn[nH]c1

remaining at 10 min, 0.5 µM [1]: 73%
Structure (SMILES): COc1cc(C(=O)N[C@H](C)c2ccccc2F)ccc1-c1cn[nH]c1

half-life [6]: 36 min
Structure (SMILES): COc1cc(NC(=O)Cc2ccccc2Cl)ccc1-c1cn[nH]c1

AUC [7]: 5 µM·h
Cmax [8]: 1.3 µM
Papp [4]: 52 ×10⁻⁶ cm/s
Papp [5]: 44 ×10⁻⁶ cm/s
remaining at 10 min, 0.5 µM [1]: 92%
Structure (SMILES): COc1cc(C(=O)N[C@@H](c2ccccc2F)C(C)(C)O)ccc1-c1cn[nH]c1

half-life [6]: 31 min
Structure (SMILES): COc1cc(NC(=O)[C@H](N)Cc2ccc(Cl)c(Cl)c2)ccc1-c1cn[nH]c1

half-life [6]: 20 min
Structure (SMILES): COc1cc(NC(=O)[C@H](N)c2ccccc2Cl)ccc1-c1cn[nH]c1

half-life [6]: 15 min
Structure (SMILES): COc1cc(NC(=O)[C@H](O)c2ccccc2Cl)ccc1-c1cn[nH]c1

remaining at 10 min, 0.5 µM [1]: 38%
Structure (SMILES): CCc1cc(C(=O)N[C@H](C)c2cccc(OC)c2)ccc1-c1cn[nH]c1

remaining at 10 min, 0.5 µM [1]: 90%
Structure (SMILES): COc1cc(C(=O)N[C@H](CO)c2c(F)cccc2F)ccc1-c1cn[nH]c1

From ChEMBL document CHEMBL4665755, “Discovery of a phenylpyrazole amide ROCK inhibitor as a tool molecule for in vivo studies” (Bioorg Med Chem Lett, 2020)
